Measurements from patent US9586936B2, “Heteroarylamine derivatives as protein kinase inhibitors” (KOREA INSTITUTE OF SCIENCE AND TECHNOLOGY, priority 2014, dated 2017).

Tests used:
microsomal stability [1] = assay type: in vitro ADME, Dog; details: for microsomal stability (% at time): Dog
Protocol: (§1) The microsomal stability of N-(2,6-dichloro-3,5-dimethoxyphenyl)-1-(6-((4-(4-ethylpiperazin-1-yl)phenyl)amino)pyrimidin-4-yl)-1H-benz[d]imidazol-2-amine synthesized in Example 1, as a representative compound of the present invention, was evaluated.

microsomal stability [2] = assay type: in vitro ADME, Human; details: for microsomal stability (% at time): Human
Protocol: as §1

- microsomal stability (% at time) (microsomal stability [1]; 0 min): 100.00%
- microsomal stability (% at time) (microsomal stability [1]; 5 min): 77.02%
- microsomal stability (% at time) (microsomal stability [1]; 10 min): 57.41%
- microsomal stability (% at time) (microsomal stability [1]; 15 min): 44.70%
- microsomal stability (% at time) (microsomal stability [1]; 30 min): 21.03%
- microsomal stability (% at time) (microsomal stability [1]; 45 min): 8.23%
- microsomal stability (% at time) (microsomal stability [1]; 60 min): 5.02%
- half-life (microsomal stability [1]; microsomes, Dog microsomal stability): 13.5 min
- microsomal stability (% at time) (microsomal stability [2]; 0 min): 100.00%
- microsomal stability (% at time) (microsomal stability [2]; 5 min): 80.36%
- microsomal stability (% at time) (microsomal stability [2]; 10 min): 76.63%
- microsomal stability (% at time) (microsomal stability [2]; 15 min): 64.04%
- microsomal stability (% at time) (microsomal stability [2]; 30 min): 51.45%
- microsomal stability (% at time) (microsomal stability [2]; 45 min): 37.62%
- microsomal stability (% at time) (microsomal stability [2]; 60 min): 36.17%
- half-life (microsomal stability [2]; microsomes, Human microsomal stability): 33.9 min
Structure (SMILES): CCN1CCN(c2ccc(Nc3cc(-n4c(Nc5c(Cl)c(OC)cc(OC)c5Cl)nc5ccccc54)ncn3)cc2)CC1 [Example 1, N-(2,6-dichloro-3,5-dimethoxyphenyl)-1-(6-((4-(4-ethylpiperazin-1-yl)phenyl)amino)pyrimidin-4-yl)-1H-benz[d]imidazol-2-amine]
